Laboratory results taken from publication PMC6145842 (Biochemical and biophysical research communications, 2018).

Molecular target: T1, DXO (Mus musculus, UniProt O70348)
T1 sequence (O70348 1-397): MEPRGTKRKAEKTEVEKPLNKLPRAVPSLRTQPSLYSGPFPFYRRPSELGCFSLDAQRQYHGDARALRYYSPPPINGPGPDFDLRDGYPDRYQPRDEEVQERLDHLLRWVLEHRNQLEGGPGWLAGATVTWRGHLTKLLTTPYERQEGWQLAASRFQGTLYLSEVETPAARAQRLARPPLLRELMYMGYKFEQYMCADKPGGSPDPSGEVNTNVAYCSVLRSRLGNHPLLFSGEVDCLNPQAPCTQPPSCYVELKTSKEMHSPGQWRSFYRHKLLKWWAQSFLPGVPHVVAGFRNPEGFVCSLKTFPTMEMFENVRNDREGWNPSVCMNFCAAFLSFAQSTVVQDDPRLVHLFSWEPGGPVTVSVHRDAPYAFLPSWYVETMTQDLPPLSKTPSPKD
Test: crystal structure at […] Å
Format: binding

In the case of `Nc1ncnc2c1ncn2[C@@H]1O[C@H](COP(=O)(O)O)[C@@H](OP(=O)(O)O)[C@H]1O` [pAp, adenosine 3’,5’-bisphosphate], the Kd is reported as 20 to 30 mM.
